US11414425B2 (priority 2018, dated 2022)
Where two headings read alike, the source gives them in different places.

Key:
[1] = target: α5β3γ2 GABAA receptors (Homo sapiens, UniProt P18507+P31644); assay: [3H]Ro15-1788 binding, membranes of Ltk cells stably expressing α5β3γ2 GABAA receptors
[2] = target: T1, GABAA receptors (α5β2γ2) (Homo sapiens, UniProt P18507+P31644); assay: Positive allosteric modulator activity: potentiation of EC20 GABA current in oocytes; format: cell-based; conditions: read-out: GABA α5 Functional Data (potentiation of EC20 GABA)
T1 construct: expressed in transfected cells
Protocol: On day 1, 1 ng/32 nL of GABAA α5β2γ2 cDNA was injected into one oocyte. Test starts on day 2. The cDNA injected to the oocytes was a mix of alpha, beta and gamma, their ratio is 1:1:10 (by weight) and the total weight of the mixed 3 subunits to be injected in one oocyte was 1 ng in 32 nl volume. The injected oocytes can also be tested on day 3. In such case, the cDNA amount injected to the oocytes should be reduced by 20%.
1). 8 oocytes were placed in 8 chambers of OpusXpress and superfused with Modified Barth's Saline (MBS) at 3 mL/min. Glass electrodes back-filled with 3M KCl (0.5-3 megaohms) were used.
1). New oocytes were used to run new test.
3). […] Oocytes were washed with MBS for 5-10 min.
4). […] Itest was divided by IGABA to obtain potentiation (%).
Test Compounds at Multiple Doses • 1). Repeat the above steps 1), 2) and 3) in the control test. • 2). […] Divide Itest by IGABA to obtain potentiation (%). • 3). Discard all tested oocytes, new oocytes were used and the above steps 1) and 2) were repeated to test second concentration of the same compound. Each oocyte was used for only one concentration test for a single test compound. The steps were repeated for other test compounds.

[3] = ranges, inhibition of [3H]Ro15-1788 binding

T1 sequence (P31644 32-462): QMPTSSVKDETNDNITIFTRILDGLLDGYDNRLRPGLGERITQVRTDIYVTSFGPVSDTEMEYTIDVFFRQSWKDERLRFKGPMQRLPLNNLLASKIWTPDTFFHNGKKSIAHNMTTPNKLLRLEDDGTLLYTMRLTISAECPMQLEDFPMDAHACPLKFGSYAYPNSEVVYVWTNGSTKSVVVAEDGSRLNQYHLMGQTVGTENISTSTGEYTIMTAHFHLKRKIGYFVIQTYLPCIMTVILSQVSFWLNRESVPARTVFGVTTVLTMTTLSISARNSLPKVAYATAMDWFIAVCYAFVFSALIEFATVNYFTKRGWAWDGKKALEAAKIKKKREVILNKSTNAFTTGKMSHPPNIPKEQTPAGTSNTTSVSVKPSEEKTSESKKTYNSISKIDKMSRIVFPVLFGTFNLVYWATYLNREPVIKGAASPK
T1 sequence (P47870 25-512, further chain): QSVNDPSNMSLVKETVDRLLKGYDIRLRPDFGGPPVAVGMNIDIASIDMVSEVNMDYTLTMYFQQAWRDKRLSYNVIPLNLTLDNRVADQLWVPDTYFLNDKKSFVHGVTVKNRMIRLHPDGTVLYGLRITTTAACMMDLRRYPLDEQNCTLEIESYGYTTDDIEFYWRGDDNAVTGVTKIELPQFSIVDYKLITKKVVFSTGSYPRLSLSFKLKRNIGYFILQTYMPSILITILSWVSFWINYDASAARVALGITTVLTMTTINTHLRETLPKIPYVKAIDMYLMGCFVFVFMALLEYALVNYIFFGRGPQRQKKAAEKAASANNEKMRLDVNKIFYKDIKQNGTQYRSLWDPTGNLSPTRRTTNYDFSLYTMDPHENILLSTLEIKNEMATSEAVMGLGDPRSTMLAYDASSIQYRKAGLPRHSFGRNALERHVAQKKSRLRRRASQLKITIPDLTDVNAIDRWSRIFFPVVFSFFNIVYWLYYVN
T1 sequence (P18507 40-475): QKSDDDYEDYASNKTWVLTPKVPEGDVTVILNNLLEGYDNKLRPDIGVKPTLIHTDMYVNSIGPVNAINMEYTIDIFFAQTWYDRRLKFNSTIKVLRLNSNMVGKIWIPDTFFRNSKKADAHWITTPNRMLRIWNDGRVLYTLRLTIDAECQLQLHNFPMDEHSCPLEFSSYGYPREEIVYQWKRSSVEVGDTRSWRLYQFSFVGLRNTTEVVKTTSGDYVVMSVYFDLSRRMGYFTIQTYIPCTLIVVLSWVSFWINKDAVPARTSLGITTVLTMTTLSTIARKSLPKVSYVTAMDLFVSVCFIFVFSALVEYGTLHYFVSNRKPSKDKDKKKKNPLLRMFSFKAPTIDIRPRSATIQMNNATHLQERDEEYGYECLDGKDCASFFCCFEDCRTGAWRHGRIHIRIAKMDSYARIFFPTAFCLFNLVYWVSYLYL
Sequence of α5β3γ2 GABAA receptors (P31644 32-462): as the sequence (P31644 32-462) above
Sequence of α5β3γ2 GABAA receptors (P28472 26-473 partner): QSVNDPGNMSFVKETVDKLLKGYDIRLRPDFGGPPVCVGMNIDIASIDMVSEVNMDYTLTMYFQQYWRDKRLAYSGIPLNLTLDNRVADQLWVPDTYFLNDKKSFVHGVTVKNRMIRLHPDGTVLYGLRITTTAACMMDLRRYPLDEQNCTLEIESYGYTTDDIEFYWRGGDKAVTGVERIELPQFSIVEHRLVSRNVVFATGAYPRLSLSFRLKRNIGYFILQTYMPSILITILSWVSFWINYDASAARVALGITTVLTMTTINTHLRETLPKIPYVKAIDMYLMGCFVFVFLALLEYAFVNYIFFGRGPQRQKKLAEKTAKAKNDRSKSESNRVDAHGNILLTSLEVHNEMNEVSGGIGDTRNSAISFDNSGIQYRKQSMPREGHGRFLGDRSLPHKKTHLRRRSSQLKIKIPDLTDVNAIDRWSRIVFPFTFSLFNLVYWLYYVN
Sequence of α5β3γ2 GABAA receptors (P18507 40-475): as the sequence (P18507 40-475) above

SMILES | Ki [1, 3] | activation at 0.1 µM ([2]; @ 100 nM, ranges) | Ki [1] | activation at 0.1 µM [2]
Clc1ccc2c(c1)-n1nncc1Cc1c(C3=NC[C@H](c4ccccc4)O3)ncn1-2 [Compound 513] | < 100 nM | 20 to 50% | – | –
COCc1nnc2n1Cc1c(C#Cc3ccc(OC)c(C)n3)ncn1-c1ccc(Cl)cc1-2 [Compound 581] | < 100 nM | 20 to 50% | – | –
COCc1nnn2c1Cc1c(C#Cc3ccc(OC)cn3)ncn1-c1ccc(Cl)cc1-2 [Compound 637] | < 100 nM | 20 to 50% | – | –
COc1ccc([C@@H]2COC(c3ncn4c3Cc3cnnn3-c3cc(Cl)ccc3-4)=N2)cc1 [Compound 521] | < 100 nM | 20 to 50% | – | –
Cc1nc(-c2ncn3c2Cc2c(Cc4ccc(F)cc4)nnn2-c2cc(C(F)(F)F)ccc2-3)no1 [Compound 493] | < 100 nM | 5 to 20% | – | –
COCc1nnc2n1Cc1c(C#Cc3ccc(OC)nc3)ncn1-c1ccc(Cl)cc1-2 [Compound 527] | < 100 nM | 20 to 50% | – | –
COCc1nnc2n1Cc1c(C#Cc3ccc(OC(C)C)nc3)ncn1-c1ccc(OC)cc1-2 [Compound 711] | < 100 nM | 5 to 20% | – | –
Clc1ccc([C@@H]2COC(c3ncn4c3Cc3cnnn3-c3cc(Cl)ccc3-4)=N2)cc1 [Compound 518] | < 100 nM | 5 to 20% | – | –
FC(F)(F)c1ccc(C#Cc2ncn3c2Cc2cnnn2-c2cc(Cl)ccc2-3)nc1 [Compound 701] | < 100 nM | 5 to 20% | – | –
Cc1nnc(-c2ncn3c2Cc2cnnn2-c2cc(Cl)ccc2-3)s1 [Compound 509] | – | – | < 100 nM | 20 to 50%
CCOc1ccc(C#Cc2ncn3c2Cn2c(COC)nnc2-c2cc(OC)ccc2-3)cn1 [Compound 710] | < 100 nM | 5 to 20% | – | –
CC(C)c1nc(-c2ncn3c2Cc2cnnn2-c2cc(Cl)ccc2-3)no1 [Compound 538] | < 100 nM | 20 to 50% | – | –
COc1ccc(C#Cc2ncn3c2Cc2cnnn2-c2cc(C(F)(F)F)ccc2-3)cc1 [Compound 499] | < 100 nM | 20 to 50% | – | –
COCc1nnc2n1Cc1c(C#Cc3ccn4ccnc4c3)ncn1-c1ccc(Cl)cc1-2 [Compound 679] | < 100 nM | > 50% | – | –
COCc1nnc2n1Cc1c(C#Cc3ccn4ccnc4c3)ncn1-c1ccc(OC)cc1-2 [Compound 675] | < 100 nM | > 50% | – | –
COCc1nnc2n1Cc1c(C#Cc3ccc(C(C)C)cc3)ncn1-c1ccc(OC)cc1-2 [Compound 716] | < 100 nM | 5 to 20% | – | –
COc1ccc2c(c1)-n1nncc1Cc1c(C#Cc3ccc(OC)nc3)ncn1-2 [Compound 530] | < 100 nM | 5 to 20% | – | –
COCc1nnc2n1Cc1c(C#Cc3cnc(OC)s3)ncn1-c1ccc(OC)cc1-2 [Compound 619] | < 100 nM | 5 to 20% | – | –
Cc1nc(-c2ncn3c2Cc2cnnn2-c2cc(Cl)ccc2-3)no1 [Compound 539] | < 100 nM | 5 to 20% | – | –
COCc1nnn2c1Cc1c(C3=NC[C@H](c4ccc(Cl)cc4)O3)ncn1-c1ccc(Cl)cc1-2 [Compound 635] | < 100 nM | 5 to 20% | – | –
COc1ccc2c(c1)-n1nncc1Cc1c(C#Cc3c[nH]nc3OC)ncn1-2 [Compound 663] | < 100 nM | 20 to 50% | – | –
COCc1nnc2n1Cc1c(C#Cc3ccnn3C)ncn1-c1ccc(Cl)cc1-2 [Compound 682] | < 100 nM | > 50% | – | –
COCc1nnc2n1Cc1c(C3=NC[C@H](c4ccc(Cl)cc4)O3)ncn1-c1ccc(Cl)cc1-2 [Compound 718] | < 100 nM | 20 to 50% | – | –
Clc1cccc([C@@H]2COC(c3ncn4c3Cc3cnnn3-c3cc(Cl)ccc3-4)=N2)c1 [Compound 515] | < 100 nM | 5 to 20% | – | –
COCc1nnc2n1Cc1c(C#Cc3cncc(OC)c3)ncn1-c1ccc(Cl)cc1-2 [Compound 559] | < 100 nM | 5 to 20% | – | –
COCc1nnc2n1Cc1c(C#Cc3ccnc(OC)c3)ncn1-c1ccc(Cl)cc1-2 [Compound 570] | < 100 nM | 5 to 20% | – | –
FC(F)(F)Oc1ccc2c(c1)-n1nncc1Cc1c(-c3ncco3)ncn1-2 [Compound 476] | < 100 nM | 5 to 20% | – | –
COc1ccc2c(c1)-n1nncc1Cc1c(C3=NCC(c4ccncc4)O3)ncn1-2 (stereo not shown) [Compound 630] | < 100 nM | 20 to 50% | – | –
COCc1nnc2n1Cc1c(C#Cc3ccc(OC)cn3)ncn1-c1ccc(OC)cc1-2 [Compound 603] | < 100 nM | > 50% | – | –
